Results published in paper PMC5908784, “Extracellular loops 2 and 3 of the calcitonin receptor selectively modify agonist binding and efficacy” (Biochemical Pharmacology, 2018).
Changes are numbered by the printed parent chain. Where no end group is shown, it is not given here.

Assays:
Test in all cases: Homologous whole cell competition binding
Conditions in all cases: homologous competition of 125I-sCT(8-32), whole cells, mean ± S.E.M., SEM
hCTR K366A = molecular target: T1, hCTR K366A (Homo sapiens, UniProt P30988, K366A)
T1 construct: c-Myc (N); expressed in transfected cells
T1 sequence (P30988 25-474 K366A): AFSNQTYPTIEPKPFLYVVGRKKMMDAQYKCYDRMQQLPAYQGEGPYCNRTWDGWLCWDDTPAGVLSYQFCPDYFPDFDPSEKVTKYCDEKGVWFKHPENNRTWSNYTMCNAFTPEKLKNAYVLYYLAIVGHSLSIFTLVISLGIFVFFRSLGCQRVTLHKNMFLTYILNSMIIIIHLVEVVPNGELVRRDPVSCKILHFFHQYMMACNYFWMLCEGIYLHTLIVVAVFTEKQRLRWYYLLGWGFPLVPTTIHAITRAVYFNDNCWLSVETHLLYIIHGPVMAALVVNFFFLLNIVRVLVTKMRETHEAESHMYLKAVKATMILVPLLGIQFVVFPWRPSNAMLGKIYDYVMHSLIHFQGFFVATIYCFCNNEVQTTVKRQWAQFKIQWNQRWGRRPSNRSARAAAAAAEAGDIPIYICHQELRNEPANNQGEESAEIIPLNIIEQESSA
Outline: (§1)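 Gamma counting of bound ^125I-sCT(8-32) after overnight 4 °C incubation of intact cells with tracer (two levels, 25–100 pM) plus unlabelled sCT(8-32) dilutions. Data normalized to total and 1 μM sCT(8-32) nonspecific binding; pKi via Cheng-Prusoff.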

hCTR WT = molecular target: T2, hCTR WT (Homo sapiens, UniProt P30988)
T2 construct: expressed in transfected cells
T2 sequence (P30988 25-474): T1 sequence (P30988 25-474 K366A) with A342K
Outline: as §1

hCTR L297A = molecular target: T3, hCTR L297A (Homo sapiens, UniProt P30988, L297A)
T3 construct: c-Myc (N); expressed in transfected cells
T3 sequence (P30988 25-474 L297A): T1 sequence (P30988 25-474 K366A) with L273A, A342K
Outline: as §1

hCTR V293A = molecular target: T4, hCTR V293A (Homo sapiens, UniProt P30988, V293A)
T4 construct: c-Myc (N); expressed in transfected cells
T4 sequence (P30988 25-474 V293A): T1 sequence (P30988 25-474 K366A) with V269A, A342K
Outline: as §1

“VLGKLSQELHKLQTYPRTNTGSGTP-NH2 [sCT(8-32)]” was tested, and the Ki (hCTR K366A) was 0.195 nM, the Ki (hCTR WT) was 0.2 nM and the Ki (hCTR L297A) was 0.0631 nM. For the same substance, the Ki (hCTR V293A) was 0.178 nM.
